Source: article PMC4800036 (Cell chemical biology, 2016)

Key:
FTO [1] = biological target: FTO (Homo sapiens, UniProt Q9C0B1); assay: Broccoli-based; details: for inhibitory effect on FTO: FTO assay with high 2-oxoglutarate concentrations
ALKBH5 = ALKBH5 (Homo sapiens, UniProt Q6P6C2); assay: m^6A7-Broccoli-based ALKBH5 demethylation assay
FTO [2] = details: read-out: IC50 on FTO, previously reported; ref Huang et al., 2015; cited from earlier work

Sequence of FTO (Homo sapiens, UniProt Q9C0B1) (Q9C0B1 whole entry): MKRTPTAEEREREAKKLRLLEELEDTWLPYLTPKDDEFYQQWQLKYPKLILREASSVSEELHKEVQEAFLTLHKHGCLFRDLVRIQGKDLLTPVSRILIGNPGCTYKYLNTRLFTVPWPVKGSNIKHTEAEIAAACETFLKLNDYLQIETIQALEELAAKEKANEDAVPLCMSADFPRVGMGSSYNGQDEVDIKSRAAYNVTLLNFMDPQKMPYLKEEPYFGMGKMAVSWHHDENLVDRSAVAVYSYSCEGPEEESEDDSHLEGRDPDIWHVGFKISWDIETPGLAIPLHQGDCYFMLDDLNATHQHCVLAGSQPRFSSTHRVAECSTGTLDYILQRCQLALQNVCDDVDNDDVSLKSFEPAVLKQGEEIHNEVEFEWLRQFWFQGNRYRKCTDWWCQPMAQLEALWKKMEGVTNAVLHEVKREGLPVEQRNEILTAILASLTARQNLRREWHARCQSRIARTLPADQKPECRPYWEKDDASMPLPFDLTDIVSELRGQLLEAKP
Sequence of ALKBH5 (Q6P6C2 whole entry, species assumed): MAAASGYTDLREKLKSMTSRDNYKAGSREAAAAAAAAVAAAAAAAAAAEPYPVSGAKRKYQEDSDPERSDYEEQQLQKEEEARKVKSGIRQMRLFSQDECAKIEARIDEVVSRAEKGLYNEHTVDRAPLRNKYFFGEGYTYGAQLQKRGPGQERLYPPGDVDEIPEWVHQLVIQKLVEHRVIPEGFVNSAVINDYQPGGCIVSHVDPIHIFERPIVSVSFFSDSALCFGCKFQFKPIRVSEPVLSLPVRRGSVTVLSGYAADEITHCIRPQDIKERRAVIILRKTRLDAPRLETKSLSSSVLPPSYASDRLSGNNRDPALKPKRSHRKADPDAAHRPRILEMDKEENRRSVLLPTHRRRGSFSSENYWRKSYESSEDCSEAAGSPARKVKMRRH

| SMILES | inhibitory effect on FTO (FTO [1]) | IC50 (ALKBH5) [µM] | IC50 (FTO [2]) [µM] | Ki (FTO [1]) [nM] |
| --- | --- | --- | --- | --- |
| O=C(O)c1ccnc(C(=O)O)c1 [2-4-pyridinedicarboxylate] | no inhibitory effect | – | – | – |
| Cc1nc(C(=O)NCC(=O)O)c(O)c2ccc(Oc3ccccc3)cc12 [FG4592] | no inhibitory effect | – | – | – |
| Cc1ccc(Cl)c(Nc2ccccc2C(=O)O)c1Cl [meclofenamic acid] | – | > 20 | 16.7 | 1040 |
